Results reported in patent US9303076B2, “Cell-penetrating peptides and uses thereof” (Hoffmann-La Roche Inc., priority 2010, dated 2016).

Assays:
[1] = test system: MCF-7 human breast cancer cells; assay: cell viability/apoptosis after 24 h exposure to pro-apoptotic peptides and CPP fusions; type: cell-based; details: MCF-7 cells, various concentrations
Description: (§1) MCF-7 human breast cancer cells were incubated for 24 h in the presence of various concentrations of NRTN (squares), Nur (circles), and NurNRTN (triangles) peptides. The respective amino acid sequences are given in the bottom panel. The experimental approach for assessing cell viability (and thus induction of apoptosis) was the same as in FIG. 3.
as §1, with “4E-BP1 (circles), TAT4E-BP1” for “NRTN”, “(squares),” for “(squares), Nur (circles),”, “NRTN4E-BP1” for “NurNRTN”, “peptides (top panel). […]” for “peptides.”
Luminescence was analyzed in an InfiniteF200 luminescence reader.
Then, the cells were treated with a luminogenic peptide substrate in order to measure dead-cell protease activity, which is released from cells that have lost membrane integrity. […] The luminescence of this assay therefore represents dead cells. The 96 well plates were then analyzed in an InfiniteF200 luminescence reader.
Despite its proven ability to convert BCL-2 into a pro-apoptotic molecule, addition of the latter peptide (i.e. “Nor/Nur”; SEQ ID NO: 72) to cancer cells, even in high concentrations, is not sufficient to induce apoptosis, as the cellular target protein is located in the cytoplasm, but the peptide per se cannot effectively penetrate through the cell membrane to reach the target. In brief, MCF-7 breast cancer cells were incubated in the presence of this peptide for 24 h.
(§2) Subsequently, it was evaluated whether the NurNRTN fusion peptide is capable of penetrating cellular membranes and thereby induces pro-apoptotic activity within cells. MCF-7 human breast cancer cells were used as a model. The experimental approach was as described above (cf. Example 1). […] This effect was dose dependent: cytotoxicity increased with increasing concentrations of peptide.
as §2, with “NRTN4E-BP1” for “NurNRTN”

[2] = target: T1, recombinant BCL2 (Homo sapiens, UniProt P10415); assay: BCL2 binding to bead-immobilized peptides; details: iodoacetyl beads, elution buffer pH 2.8, protein stain
T1 construct: purchased Calbiochem/Merck, Darmstadt, Germany
T1 sequence (P10415 whole entry): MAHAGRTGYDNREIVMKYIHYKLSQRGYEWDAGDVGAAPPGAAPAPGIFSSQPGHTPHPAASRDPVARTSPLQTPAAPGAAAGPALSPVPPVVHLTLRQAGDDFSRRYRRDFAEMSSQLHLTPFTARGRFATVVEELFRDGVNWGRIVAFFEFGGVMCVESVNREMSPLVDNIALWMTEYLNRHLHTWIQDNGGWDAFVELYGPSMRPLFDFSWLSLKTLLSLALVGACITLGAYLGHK
Description: In order to determine whether the BCL2 binding properties of the Nur77-derived peptide are maintained in the NurNRTN fusion peptide, the respective NurNRTN and NRTN peptides were coupled to iodoacetyl beads (Pierce Biotechnology, Inc., Rockford, Ill., USA). The beads were incubated with recombinant BCL2 (Calbiochem/Merck, Darmstadt, Germany) and washed with PBS and 0.5 M NaCl, 0.025 NaN3, 0.05% Tween20 to remove unbound protein. Specific binding of BCL2 to the immobilized NurNTRN fusion peptide was determined by eluting bound […] from the beads with elution buffer (pH 2.8), transfer of the eluted fraction to nitrocellulose (Invitrogen Corporation, Carlsbad, Calif., USA), and protein detection by means of the MemCode Reversible Protein Stain Kit (Pierce Biotechnology, Inc., Rockford, Ill., USA).

## FSRSLHSLLYDLGLRRLRQRRRLRRERVRA (NurNRTN peptide sequence)
[1]
  cell viability / induction of apoptosis: remarked cytotoxicity
[2]
  BCL2 in eluates from peptide-coated beads: BCL2 can be detected in eluates
